According to patent US20250127906A1, “SMALL-MOLECULE DEGRADERS OF CDK8 AND CDK19” (University of South Carolina, priority 2021, published 2025):
Values belong to the compound of their own block, whether it stands above or below them.

What was measured:
RPMI 8226 cells = assay: Concentration dependence of RPMI 8226 growth inhibition; assay type: cell-based; conditions: RPMI 8226, 4-day growth inhibition
SK-MM-2 cells = assay: SK-MM-2 multiple myeloma cell growth over 20 days continuous treatment; assay type: cell-based; conditions: BI1347 200 nM, Senexin C 1 μM, IA7886 200 nM, IA7843 1 μM
Description: The following CDK8/19 kinase inhibitors were tested for their effects on MM cell lines over 20 days continuous treatment: CDK8/19 kinase inhibitors BI1347 (200 nM) and Senexin C (1 μM), BI1347-derived PROTAC IA7886 (200 nM) and Senexin C-derived PROTAC IA7843 (1 μM). 1-4 million cells were treated with vehicle control (0.1% DMSO), or CDK8/19 kinase inhibitors or PROTACs for 20 days. Every 4 days, cells were counted using BioRAD TC20 Automated Cell Counter with trypan blue staining, and the same number of cells were passaged to a new T25 flask to propagate under the same treatment conditions.

CDK8 = CDK8 (Homo sapiens, UniProt P49336); assay: CDK8 degradation in HEK-293 cells (Western blot, normalized by GAPDH); assay type: cell-based; design: endogenous in cells; host or cells: HEK-293
Description: Table 1 presents the structures of 35 different chimeras that have been synthesized, together with their effects (at 1 μM or 0.3 μM concentrations) on CDK8 degradation in HEK-293 cells. The synthesis schemes of all the compounds are described below. CDK8 degradation was measured by Western blot analysis of RIPA lysates of HEK-293cells treated with or without the test compound for 24 hours, using antibodies against CDK8 (Santa Cruz sc-1521) and housekeeping protein GAPDH (Santa Cruz sc-32233) (loading control) Protein bands on immunoblotted PVDF membranes were visualized with Western Lighting Plus ECL detection reagent (Perkin Elmer, Waltham, MA, USA) using ChemiDoc Touch™ (Bio-Rad). Image processing and densitometry analysis were performed using ImageLab software (Bio-Rad) to quantify the CDK8 protein levels (normalized by GAPDH) and evaluate the effects of compound treatment.
(§1) FIGS. 2F and 2G show the effects of different concentrations of potent Senexin C- and BI-1347-based PROTACs on CDK8 and CDK19 degradation in HEK-293cells. Based on these assays, we calculated DC50 values that correspond to PROTAC concentrations inducing degradation of CDK8 and CDK19 to the half of protein level in untreated cells. The corresponding CDK8 DC50 values were 46 nM for IA7843, 6.6 nM for IA7882 and 2.8 nM for IA7886, and CDK19 DC50 values were 1 μM for IA7843, 25 nM for IA7882 and 10 nM for IA7886.

CDK19 = CDK19 (Homo sapiens, UniProt Q9BWU1); assay: CDK19 degradation in HEK-293 cells (Western blot); assay type: cell-based; design: PROTACs on CDK8 and CDK19 degradation in HEK-293cells; endogenous in cells; host or cells: HEK-293; conditions: concentration degrading CDK19 to half of level in untreated cells
Description: Furthermore, the degradation of both CDK8 and CDK19 by the PROTACs is also seen to decrease the levels of their binding partner cyclin C (CCNC) (FIG. 2B, D, E), which is known to be protected from proteolytic degradation by its interaction with CDK8 (Barette et al., 2001).
as §1

MV4-11 cells = assay: Long-term growth of MV4-11 cells under continuous treatment; assay type: cell-based, human; conditions: MV4-11, 300 nM continuous
Description: (§2) The anti-proliferative effects of a PROTAC and a kinase inhibitor were compared in leukemia cell lines. In the long-term treatment experiment shown in FIG. 11A, Jurkat cells (0.1 million cells) were continuously treated with vehicle control (0.1% DMSO), 300 nM BI-1347 or 300 nM IA7886 for 53 days (each condition in biological triplicates). Every 7-8 days, live cells were counted using BioRAD TC20 Automated Cell Counter with trypan blue staining: 0.1 million live cells were passaged to a new T25 flask to propagate under the same treatment conditions. The survival fraction was calculated by dividing the accumulated number of drug-treated cells with the accumulated number of vehicle-treated cells. […] This sustained inhibition property of PROTAC was also observed in MV4-11, a leukemia cell line highly sensitive to CDK8/19 kinase inhibitors.

KMS-12-BM cells = assay: Concentration dependence of KMS-12-BM growth inhibition (CCK-8 assay); assay type: cell-based; conditions: Homo sapiens, 96 h, over 4 days
Description: Concentration dependence of KMS-12-BM growth inhibition over 4 days was determined for BI-1347 CDK8/19 kinase inhibitor and IA7886 PROTAC using CCK-8 assay (FIG. 13B).

CDK8/19-regulated genes = assay: QPCR of CDK8/19-regulated genes in HEK-293 wild-type and CDK8/19 double-knockout cells; assay type: cell-based, human; conditions: for effect on expression of CDK8/19-regulated genes: 200 nM, 3-day treatment
Description: CDK8/19 act as transcriptional regulators, and therefore we tested the effects of 3-day treatment with 200 nM PROTAC IA7886 along with 200 nM CDK8/19 kinase inhibitor BI-1347 on a series of CDK8/19-regulated genes, using QPCR.
We have also compared the stability of transcriptional changes induced by a PROTAC and by a kinase inhibitor. In the experiment shown in FIG. 10A, HEK-293 cells were treated with 200 nM of BI-1347 or IA7886 for 3 days, and then the inhibitors were washed off and the restoration of transcriptional changes was monitored 24 hrs and 48 hrs after wash-off.

Jurkat cells [1] = assay: Wash-off growth study in Jurkat cells; assay type: cell-based, human; conditions: pre-treated 200 nM for 8 days, then drug-free vs drug-containing media for 8 days
Description: We also compared the stability of short-term growth inhibition induced by a PROTAC and a kinase inhibitor in a wash-off study in Jurkat cells. In the experiment shown in FIG. 11C, Jurkat cells were pre-treated with 200 nM BI-1347 or IA7886 for 8 days before removal of drug-containing media and further cultured in either drug-containing (200 nM) or drug-free media for 8 days before counting cell numbers. Removal of BI-1347 led to 7.1 fold increase of the cell number while removal of IA7886 increased the cell number only 1.8 fold (FIG. 11C).

Jurkat cells [2] = assay: Long-term growth of Jurkat cells under continuous treatment; assay type: cell-based, human; conditions: 300 nM continuous
Description: as §2

Sequence of CDK8 (P49336 whole entry): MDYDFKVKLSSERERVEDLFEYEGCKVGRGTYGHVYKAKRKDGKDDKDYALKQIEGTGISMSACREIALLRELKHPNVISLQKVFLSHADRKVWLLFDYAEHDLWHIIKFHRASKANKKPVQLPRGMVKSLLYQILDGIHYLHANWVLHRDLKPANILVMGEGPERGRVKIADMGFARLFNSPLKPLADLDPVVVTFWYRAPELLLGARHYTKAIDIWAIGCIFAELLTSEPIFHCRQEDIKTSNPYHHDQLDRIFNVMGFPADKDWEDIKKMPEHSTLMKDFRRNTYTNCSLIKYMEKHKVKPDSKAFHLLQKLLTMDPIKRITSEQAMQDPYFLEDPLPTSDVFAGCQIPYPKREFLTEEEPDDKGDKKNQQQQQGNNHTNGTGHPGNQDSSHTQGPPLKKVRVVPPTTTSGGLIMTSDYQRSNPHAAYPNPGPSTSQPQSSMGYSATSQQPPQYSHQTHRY
Sequence of CDK8 (P24863 whole entry partner): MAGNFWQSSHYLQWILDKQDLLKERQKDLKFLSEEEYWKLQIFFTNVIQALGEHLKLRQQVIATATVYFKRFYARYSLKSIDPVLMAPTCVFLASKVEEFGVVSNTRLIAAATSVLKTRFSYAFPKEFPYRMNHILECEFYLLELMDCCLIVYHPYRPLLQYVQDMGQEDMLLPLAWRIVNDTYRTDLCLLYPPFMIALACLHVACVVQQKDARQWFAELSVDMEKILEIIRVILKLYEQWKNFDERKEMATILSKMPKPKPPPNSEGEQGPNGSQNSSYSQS
Sequence of CDK19 (Q9BWU1 whole entry): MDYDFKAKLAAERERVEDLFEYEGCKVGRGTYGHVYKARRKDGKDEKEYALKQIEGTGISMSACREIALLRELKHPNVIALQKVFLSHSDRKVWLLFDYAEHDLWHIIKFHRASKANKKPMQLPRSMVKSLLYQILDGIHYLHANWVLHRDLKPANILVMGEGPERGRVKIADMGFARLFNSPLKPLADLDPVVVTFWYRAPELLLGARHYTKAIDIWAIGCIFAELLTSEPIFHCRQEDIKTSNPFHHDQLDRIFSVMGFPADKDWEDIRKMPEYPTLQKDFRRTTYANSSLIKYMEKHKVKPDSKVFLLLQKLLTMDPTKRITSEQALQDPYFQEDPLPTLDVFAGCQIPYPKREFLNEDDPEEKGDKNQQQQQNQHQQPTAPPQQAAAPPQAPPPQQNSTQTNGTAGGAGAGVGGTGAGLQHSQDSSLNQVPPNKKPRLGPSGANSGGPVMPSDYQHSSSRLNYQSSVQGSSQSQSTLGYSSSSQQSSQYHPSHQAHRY
Sequence of CDK19 (P24863 whole entry partner): as the sequence (P24863 whole entry partner) above

Structure (SMILES): CN(C)C(=O)c1ccc(N2CCCN(c3ccnc4sc(C(N)=O)c(N)c34)CC2)cc1 [SNX631-6, reference compound]
IC50 (RPMI 8226 cells): > 1 µM

Structure (SMILES): CN1CCN(C(=O)c2ccc3cc(CCNc4ccnc5ccc(C#N)cc45)ccc3c2)CC1 [Senexin C, reference compound]
growth inhibition over 20 days, order of efficacy (SK-MM-2 cells): BI1347<IA7886<Senexin C<IA7843
induction of CDK8 degradation by single agents (CDK8; HEK-293, HP8580 200 nM and 1 μM, pomalidomide 5 μM, Senexin C 5 μM): but not pomalidomide or Senexin C induced CDK8 degradation

DC50 (CDK19): 1 µM
% CDK8 remaining (CDK8; HEK-293 cells, 24 hours, tested at 1 μM): 13%
DC50 (CDK8; HEK-293 cells, concentration degrading CDK8 to half of level in untreated cells): 0.046 µM
Structure (SMILES): N#Cc1ccc2nccc(NCCc3ccc4cc(C(=O)N5CCN(C(=O)CCCCCCCCCCNC(=O)CCCNc6cccc7c6C(=O)N(C6CCC(=O)NC6=O)C7=O)CC5)ccc4c3)c2c1 (stereo not drawn) [IA7843]

Structure (SMILES): CN(C)C(=O)Cn1cc(-c2ccc(-c3cncc4ccccc34)cc2)cn1 [BI-1347, reference compound]
growth inhibition over 60 days (MV4-11 cells): strongly inhibited MV4-11 cells for the first 4 passages (33 days) but after that the cells became fully resistant to the kinase inhibitor
IC50 (KMS-12-BM cells): > 1 µM
effect on expression of CDK8/19-regulated genes (CDK8/19-regulated genes; CDK8/19 double-knockout (dKO) 293 cells): had no effect in dKO cells
stability of transcriptional changes after wash-off (CDK8/19-regulated genes; HEK-293, 200 nM for 3 days, then 24 hrs and 48 hrs after wash-off): largely maintained 24 hrs after wash-off but mostly disappeared 48 hrs after wash-off
effect on expression of CDK8/19-regulated genes (CDK8/19-regulated genes; wild-type HEK-293 cells): had similar effects on the expression of the tested genes
increase of the cell number upon removal of drug (Jurkat cells [1]): 7.1 fold
growth inhibition over 20 days, order of efficacy (SK-MM-2 cells): BI1347<IA7886<Senexin C<IA7843
growth inhibition, first two passages (14 days) (Jurkat cells [2]): had a stronger growth inhibition effect than the PROTAC IA7886
growth rates in later passages (Jurkat cells [2]; up to 53 days): growth rates of BI-1347 treated cells were increasing
